The results in this text go back to patent publication US8124582B2, “Treatment of diabetes” (FibroGen, Inc., priority 2002, dated 2012).

Test [1] can be described thus: Blood glucose levels after 14 days oral dosing. It counts as in vivo, male Sprague Dawley rats. To be noted: rats, 20, 60, 100, or 200 mg/kg oral gavage once daily for 14 days, overnight fast, day 15; FIG. 4. The protocol: The effect of compound administration on blood glucose levels was examined as follows. Fifty male Sprague Dawley rats (6-7 weeks old) obtained from Simonsen, Inc. were dosed with 0.5% CMC (Sigma-Aldrich) or compound B at 20, 60, 100, or 200 mg/kg body weight by oral gavage once daily for 14 consecutive days. Animals were monitored for changes in body weight and signs of overt toxicity and mortality. […] One sample of approximately 1 ml was collected into tubes containing EDTA for hematological analysis, and a second sample of approximately 1 ml was collected into a tube with no anticoagulant for serum chemistry analysis. Blood sample analyses were performed by IDEXX (West Sacramento, Calif.).

Another test relates to GluT-1. Kind of test: In vivo GluT-1 gene expression in kidney, dose response (microarray). The conditions noted are these: mice, low dose (30 mg/ml) or high dose (100 mg/ml), oral gavage once per day for 4 days; FIG. 3A. Also noted: species or system Swiss Webster male mice. The method, then:
To investigate the dose response of compounds of the present invention, twelve Swiss Webster male mice (30-32 g) (obtained from Simonsen, Inc., Gilroy Calif.) were treated by oral gavage once per day for 4 days with a 4 ml/kg volume of either 0.5% carboxymethyl cellulose (CMC; Sigma-Aldrich, St. […] Four hours after the final dose, animals were anesthetized, sacrificed, and approximately 150 mg of liver and each kidney were isolated and stored in RNALATER solution (Ambion) at −20° C.
RNA from tissues obtained from the experiments described above was isolated using the following protocol. A 50 mg section of each organ was diced, 875 μl of RLT buffer (RNEASY kit; Qiagen Inc., Valencia Calif.) was added, and the pieces were homogenized for about 20 seconds using a rotor-stator POLYTRON homogenizer (Kinematica, Inc., Cincinnati Ohio). […] The RNA was eluted into 80 μL of water and quantitated with RIBOGREEN reagent (Molecular Probes, Eugene Oreg.). […] The absorbance at 260 and 280 nm was measured to determine RNA purity and concentration.
Alternatively, tissue samples were diced and homogenized in TRIZOL reagent (Invitrogen Life Technologies, Carlsbad Calif.) using a rotor-stator POLYTRON homogenizer (Kinematica). […] The absorbance at 260 and 280 nm was measured to determine RNA purity and concentration. […]

The test system of another test is aldolase. Kind of test: Aldolase protein expression in 293A cells (Western blot). The conditions noted are these: FIG. 1A. It counts as cell-based, Human. The protocol: The effect of compounds of the present invention on expression of proteins and genes involved in glucose regulation and metabolism as follows. Human 293A cells (adenovirus-transformed fetal kidney epithelium) were plated confluent in 35 mm culture dishes and cultured for 1 day at 37° C., 10% CO2 in DMEM containing 5% FBS and 1% penicillin-streptomycin. The media was changed to Opti-Mem I and incubation was continued for an additional 18 to 24 hours. Vehicle control or compound B was then added to the media and cells were incubated for an additional 24, 48 or 72 hours. Plates were placed on ice, culture supernatant was removed, and lysis buffer-1 (LB-1: 10 mM Tris pH 7.4, 1 mM EDTA, 150 mM sodium chloride, 0.5% IGEPAL) was added. Cell lysates were harvested by scraping, incubated for 15 minutes on ice, and then fractionated by centrifugation at 3000×g for 5 minutes at 4° C. The supernatant, which represented the cytosolic fraction, was collected and cytosolic proteins were separated under reducing conditions using SDS-polyacrylamide gel electrophoresis (SDS-PAGE) with equal amounts of protein loaded per lane.
SDS-PAGE was conducted at 150 V for 2 hours, after which the proteins were transferred to a PVDF membrane at 400 mA for 1.5 hours at 4° C. […]

With `O=C(O)CNC(=O)c1nc(Cl)c2ccccc2c1O` [compound B, [(1-Chloro4-hydroxy-isoquinoline-3-carbonyl)-amino]-acetic acid], the blood glucose levels entry in test [1] is given as “dose-dependent decrease”. Besides, in the test with GluT-1, the “expression of the gene encoding GluT-1 in kidney” value is listed as “dose-dependent alteration”. Besides, the aldolase expression result with aldolase (293A cells treated for 24, 48, and 72 hours, vs vehicle control) is on record as “increased over time”. The β-tubulin expression entry in the test on aldolase (293A cells, specificity control) was “no increases”.
